This passage reports MIC results from patent publication US11976066B1 (priority 2023, dated 2024).

Converted amounts (≈) assume the structure as drawn.

The experiment relates to multidrug-resistant (MDR) strains of Mycobacterium tuberculosis. In words: microbe, parasite or virus in culture. In kind it is cell-based. As to conditions: 192 h, read-out: MIC MDR-TB, MDR strains, REMA, 8 days incubation at 37° C, Middlebrook 7H9 broth.
Consider `CCOC(=O)c1cc(C(=O)c2ccc(F)cc2)n2ccc(N)cc12` [Compound 3a, Ethyl 7-amino-3-(4-fluorobenzoyl)indolizine-1-carboxylate], for which the MIC turned out to be 32 µg/mL (≈ 98.1 µM). With `CCOC(=O)c1cc(C(=O)c2ccccc2[N+](=O)[O-])n2ccc(N)cc12` [Compound 3b, Ethyl 7-amino-3-(2-nitrobenzoyl)indolizine-1-carboxylate] the figure was approximately 16 µg/mL (≈ 45.3 µM). With `CCOC(=O)c1cc(C(=O)c2ccc(Br)cc2)n2ccc(N)cc12` [Compound 3e, Ethyl 7-amino-3-(4-bromobenzoyl)indolizine-1-carboxylate] the figure was approximately 64 µg/mL (≈ 165 µM). To `COC(=O)c1c(C(=O)OC)c2cc(N)ccn2c1C(=O)c1ccc(OC)cc1` [Compound 3d, Dimethyl 7-amino-3-(4-methoxybenzoyl)indolizine-1,2-dicarboxylate] belongs approximately 32 µg/mL (≈ 83.7 µM).
